Assay results taken from patent publication US20240350430A1, “GROWTH INHIBITOR OF METASTATIC HUMAN PROSTATE CANCER CELLS” (Watanabe Oyster Laboratory Co., Ltd., priority 2021, published 2024).

System: PC-3 cells
Experiment: Western blot of protein expression levels in PC-3 cells
Format: cell-based, human
Details: DHMBA 10 μM, three days
Protocol: The PC-3 cells (1×10^6 cells/10 ml, 100-mm dish) were cultured in a DMEM culture fluid containing 10% of FBS, 1% of P/S, and 1% of fungizone under 5% of CO2, at 37° C., for three days. In addition, the culture fluid contained the DHMBA (10 μM). After the culture, the cells were adjusted by adding a cell lysis buffer (Cell Signaling Technology, Danvers, MA, USA) containing proteolytic enzyme and a protein phosphatase activity inhibitor. The cell solution was centrifuged at 17,000×g at 4° C. for 10 minutes to collect the supernatant. An amount of protein in the supernatant was measured using Bio-Rad Protein Assay Dye (Bio-Rad Laboratories, Inc., Hercules, CA, USA) with albumin as reference protein. Protein samples were stored in a freezer at −80° C. until being used. Using 40 μg of a protein sample solution, the product was added to SDS polyacrylamide gel electrophoresis (SDS-PAGE, 12%) and separated. After that, the protein molecules were transferred to a nylon membrane. Immunoblot was performed on the membrane using an antibody that specifically bound to the protein molecules. The antibodies, such as Ras (cat. no. 3339, rabbit), Akt (cat. no. 9272, rabbit), mitogen-activated protein kinase (MAPK: cat. no. 4695, rabbit), phosphorylated-MAPK (cat. no. 4370, rabbit), mechanistic target of rapamycin (mTOR, cat. no. 4517, mouse), Rb (cat. no. 9309, mouse), p21 (cat. no. 2947, rabbit), caveolin-1 (cat. no. 3267, rabbit), and β-actin (cat. no. 3700, mouse), were purchased from Cell Signaling Technology (Danvers, MA, USA). Also, p53 (cat. no. sc-126, mouse), NF-κB p65 (cat. no. sc-109, rabbit), and integrin β1 (cat. no. sc-13590, mouse) were obtained from Santa Cruz Biotechnology, Inc. (Santa Cruz, CA, USA). In addition, rabbit anti-regucalcin antibody was purchased from Sigma-Aldrich (cat. no. HPA029103, rabbit). Target proteins were incubated at low temperature for 16 hours using the primary antibodies described above. After that, using a secondary antibody of horseradish peroxidase-conjugated secondary antibodies (Santa Cruz Biotechnology, Inc., mouse sc-2005 or rabbit sc-2305; diluted 1:1,000), incubation was performed for 60 minutes at room temperature. After that, protein bands were illuminated with chemiluminescence substrate (cat. no. 34577, Thermo Scientific, Rockford, IL, USA) and exposed and detected on X-ray films using a developer.
(§1) The PC-3 cells (1×10^6 cells/10 ml, 100-mm dish) were cultured under 5% of CO2, at 37° C., for three days in a DMEM culture fluid containing 10% of FBS, 1% of P/S, and 1% of fungizone. In addition, the culture fluid contained the DHMBA (10 μM). After the culture, the cells were adjusted by adding a cell lysis buffer (Cell Signaling Technology, Danvers, MA, USA) containing proteolytic enzyme and a protein phosphatase activity inhibitor. Using 40 μg of a protein sample solution, the product was separated by SDS polyacrylamide gel electrophoresis (SDS-PAGE, 12%). After that, the protein molecules were transferred to a nylon membrane. Immunoblot was performed on the membrane using an antibody that specifically bound to the protein molecules.
as §1, with “In FIG. 5(G), the” for “The”, “molecules. […]” for “molecules.”

COc1c(O)cc(CO)cc1O [DHMBA, 3,5-dihydroxy-4-methoxybenzyl alcohol]
significantly decreased: expression level of NF-κB p65 | expression level of caveolin-1 | expression level of integrin β1
significantly inhibited: expression level of Akt | expression level of MAP kinase | expression level of PI3 kinase | expression level of Ras | expression level of mTOR | expression level of phospho-MAP kinase
increased: level of activated caspase 3 (cleaved caspase-3) | level of caspase 3
significantly increased: expression level of Rb | expression level of p21 | expression level of p53 | expression level of regucalcin
